This is an account of results in patent US20180185801A1, “AMPHOTERIC ESTER SULFONATES” (Eastman Chemical Company, priority 2014, published 2018).

Data set [1] can be described thus: Foaming properties, ASTM 1173-07 foam height test. In kind it is physicochemical. The source says:
The Standard Test Method for Foaming Properties of Surface-Active Agents (ASTM 1173-07) was used to determine the foaming properties of the ester sulfonates 1 described herein. This method generates foam under low-agitation conditions and is generally used for moderate- and high-foam surfactants. This test gathers data on initial foam height and foam decay.
Foam decay provides information on foam stability.
The apparatus for carrying out this test includes a jacketed column and a pipet. The jacketed column serves as a receiver, while the pipet delivers the surface-active solution. Solutions of each surface-active agent were prepared. The amphoteric ester sulphonate solution to be tested was added to the receiver (50 mL) and to the pipet (200 mL). The pipet was positioned above the receiver and opened. As the solution fell and made contact with the solution in the receiver, foam was generated. When the pipet was empty, the time was noted and an initial foam height was recorded. The foam height was recorded each minute for five minutes. Exact size specifications for the glassware can be found in ASTM 1173-07. The foam height results for each ester sulfonate 1 and representative standards are listed below in Tables 1 (0.1% concentration) and 2 (1% concentration).

The nature of data set [2]: Critical micelle concentration, fluorimetric determination with DPH dye. The format is physicochemical. The procedure: The critical micelle concentration (CMC) was also determined for each compound. The CMC is the concentration of surfactant above which micelles spontaneously form. CMC is an important characteristic of a surfactant. At surfactant concentrations below the CMC, surface tension varies widely with surfactant concentration. At concentrations above the CMC, surface tension remains fairly constant. A lower CMC indicates less surfactant is needed to saturate interfaces and form micelles. Typical CMC values are less than 1 weight percent (10,000 ppm).
The fluorimetric determination of CMC described by Chattopadhyay and London (Analytical Biochemistry, Vol. 139, pp. 408-412 (1984)) was used to obtain the critical micelle concentrations found in Table 3 below. This method employs the fluorescent dye 1,6-diphenyl-1,3,5-hexatriene (DPH) in a solution of the surface-active agent. The analysis is based on differences in fluorescence upon incorporation of the dye into the interior of the micelles. As the solution exceeds CMC, a large increase in fluorescence intensity is observed.

For data set [3] the following is noted: buffer, pH 4.5.
Experimental: The resulting mixture was placed in a 50° C. oven. Samples were taken periodically and analyzed for the amount of 3-(lauroyloxypropyldimethylammonio)-2-hydroxypropanesulfonate remaining by quantitative HPLC.
Samples were taken periodically and analyzed for the amount of 3-(cocoyloxypropyldimethylammonio)acetate remaining by quantitative HPLC.

Structures are written as SMILES. Where two headings read alike, the source gives them in different places.

For the compound `CCCCCCCCCCCC(=O)OC(C)CC[N+](C)(C)CC(O)CS(=O)(=O)[O-]` (centres unmarked) [Example 27, 3-(3-(lauroyloxy)-1-butyldimethylammonio-1-yl)-2-hydroxypropanesulfonate], the “Foam height (cm) at time t (min)” value in data set [1] (1 g/L (0.1 weight %), t = 0 min) is 16.5 cm; in data set [1] (1 g/L (0.1 weight %), t = 1 min), 16.0 cm; in data set [1] (1 g/L (0.1 weight %), t = 2 min) it was 15.5 cm; in data set [1] (1 g/L (0.1 weight %), t = 3 min), 15.5 cm; in data set [1] (1 g/L (0.1 weight %), t = 4 min) it was 15.5 cm; in data set [1] (1 g/L (0.1 weight %), t = 5 min), 15.0 cm. Besides, the “Foam height (cm) at time t (min)” value was 17.5 cm in data set [1] (10 g/L (1.0 weight %), t = 0 min); 17.0 cm in data set [1] (10 g/L (1.0 weight %), t = 1 min); 17.0 cm in data set [1] (10 g/L (1.0 weight %), t = 2 min); 16.5 cm in data set [1] (10 g/L (1.0 weight %), t = 3 min); 16.0 cm in data set [1] (10 g/L (1.0 weight %), t = 4 min); 15.5 cm in data set [1] (10 g/L (1.0 weight %), t = 5 min). Besides, the “CMC” value in data set [2] turned out to be 0.060 mM. Also, the “CMC (ppm)” value in data set [2] was 26.4 ppm.

For `CCCCCCCCCCCC(=O)OCCC[N+](C)(C)CC(O)CS(=O)(=O)[O-]` (centres unmarked) [Example 31, 3-(lauroyloxypropyldimethylammonio)-2-hydroxypropanesulfonate], the “Percent Amphoteric Remaining” value in data set [3] (0 h) is 100%; in data set [3] (336 h), 98%; in data set [3] (1008 h) it was 98%; in data set [3] (1344 h), 94%; in data set [3] (2016 h), 95%.

Turning to `CCCCCCCCCCCCOS(=O)(=O)O.N` [ammonium lauryl sulfate], in data set [2], the “CMC” value came out at 1.38 mM and the “CMC (ppm)” value is recorded as 392 ppm.

For `CCCCCCCCCCCCOS(=O)(=O)[O-].[Na+]` [sodium lauryl sulfate], in data set [2], the “CMC” value is on record as 8.27 mM and the “CMC (ppm)” value came to 2386 ppm.
